Data taken from article PMC11546610, “Molecular Modeling and In Vitro Functional Analysis of the RGS12 PDZ Domain Variant Associated with High-Penetrance Familial Bipolar Disorder” (International Journal of Molecular Sciences, 2024).
Where a chain is given by its changes, count along the chain named. Names and notes keep the numbering of the source. Each block holds one molecule with its values, some of them ahead of it. Residues, ends and D or L forms follow the SMILES beside them. *: point of attachment. Biotin = O=C1N[C@H]2[C@H](CS[C@H]2CCCCC(=O)*)N1; Ahx = NCCCCCC(=O)O

Assays:
[1] = test system: RGS12 PDZ domain protein fusions; settings: yeast two-hybrid, far-western blotting, SPR; ref [19]; cited from earlier work
Excerpt: In our initial report identifying the PDZ domain within RGS12, we characterized its binding selectivity as being directed toward C-terminal (A/S)-T-X-(L/V) peptide motifs. […] Our subsequent report, characterizing RGS12 as a neuronal Ras/MAPK ...

[2] = molecular target: T1, R59Q-variant RGS12 PDZ domain GST-fusion protein (Homo sapiens, UniProt O14924, R59Q); assay: SPR single-cycle kinetics (Alto), R59Q-variant PDZ domain; format: binding; settings: for KD of R59Q variant relative to wildtype (fold less than the wildtype) / maximal binding signal (Rmax), R59Q in comparison to wildtype: R59Q vs wildtype, peptide biosensors, N = 2-4; for kon: R59Q, single trace in figure, 111 nM–9 μM analyte, PBS pH 7.3, 1:1 Langmuir with mass transport limitation, read-out: apparent on-rate (ka)
T1 construct: human RGS12 PDZ domain (aa 18–101 of UniProt O14924); purchased GenScript; host or cells: E. coli
T1 sequence (O14924 18-101 R59Q): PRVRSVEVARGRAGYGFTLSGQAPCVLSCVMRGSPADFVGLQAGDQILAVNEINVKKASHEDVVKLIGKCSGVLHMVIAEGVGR
Procedure: (§1) Wildtype and R59Q-variant versions of the human RGS12 PDZ domain (aa 18–101 of UniProt O14924) were each cloned in frame with an N-terminal glutathione-S-transferase (GST) expression tag, expressed by E. coli fermentation, and purified by GST-affinity column and size-exclusion column chromatographies by GenScript. These recombinant GST-fusion proteins were stored at −80 °C in a storage buffer (150 mM NaCl, 10 mM Tris-HCl pH 7.6, 1 mM EDTA, 5 mM DTT, and 10% glycerol) prior to thawing and supplementation with 0.1% (final) Tween 20 for use in the SPR experiments.
Biotinylated peptides were separately immobilized onto streptavidin-coated gold nanosensor particles (Nicoya) in lane pairs. The reference sensor of the lane held either immobilized mNotch1 or rβ2AR peptide as an established negative control surface, and the test sensor held one of the candidate PDZ domain-interacting peptides. All on-board dilutions and experimental passages of analytes over immobilized peptides were performed with a running buffer consisting of phosphate-buffered saline (137 mM NaCl, 2.7 mM KCl, 4.3 mM disodium phosphate, 1.4 mM monopotassium phosphate; and pH 7.3, from Teknova) supplemented with 0.1% Tween 20 (Nicoya), […] (w/v) bovine serum albumin (BSA; Nicoya), and 3% glycerol (the latter to reduce bulk-shift readings when transitioning from running buffer to protein analyte injections). […] Each sensor was regenerated between each single-stack passage by the injection of a surface regeneration buffer (10 mM NaOH). Non-specific binding to the paired, negative control peptide-bound streptavidin surface was subtracted from each single-stack curve and then binding parameters of the on-rate (ka), off-rate (kd), and dissociation constant (KD) were calculated using the 1:1 Langmuir kinetics model with mass transport limitation (Alto software version 2.3.1; Nicoya). Observed maximal response units (Rmax) and calculated KD values for each single-stack injection were plotted using GraphPad Prism 10.

[3] = molecular target: T2, wildtype RGS12 PDZ domain GST-fusion protein (Homo sapiens, UniProt O14924); assay: SPR single-cycle kinetics (Alto), wildtype PDZ domain; format: binding; settings: single trace in figure, 111 nM–9 μM analyte, PBS pH 7.3, 1:1 Langmuir with mass transport limitation, read-out: apparent on-rate (ka)
T2 construct: human RGS12 PDZ domain (aa 18–101 of UniProt O14924); purchased GenScript; host or cells: E. coli
T2 sequence (O14924 18-101): T1 sequence (O14924 18-101 R59Q) with Q42R
Procedure: as §1
Biotinylated peptides were separately immobilized onto streptavidin-coated gold nanosensor particles (Nicoya) in lane pairs. […] All on-board dilutions and experimental passages of analytes over immobilized peptides were performed with a running buffer consisting of phosphate-buffered saline (137 mM NaCl, 2.7 mM KCl, 4.3 mM disodium phosphate, 1.4 mM monopotassium phosphate; and pH 7.3, from Teknova) supplemented with 0.1% Tween 20 (Nicoya), […] (w/v) bovine serum albumin (BSA; Nicoya), and 3% glycerol (the latter to reduce bulk-shift readings when transitioning from running buffer to protein analyte injections). […] Observed maximal response units (Rmax) and calculated KD values for each single-stack injection were plotted using GraphPad Prism 10.

[4] = molecular target: T3, MEK2 C-terminal peptide, biotin-Ahx-RTLRLKQPSTPTRTAV-carboxylic acid (rat, SMILES …); assay: SPR; Alto 8 × 2 digital microfluidics SPR (Nicoya); biotinylated peptides immobilised on streptavidin-coated gold nanosensors; GST-RGS12 PDZ fusion protein as analyte, single-cycle kinetics, 111 nM-9 μM; PBS pH 7.3 with 0.1% Tween 20, BSA, 3% glycerol; mNotch1 or rβ2AR reference sensor subtracted; 1:1 Langmuir model with mass transport limitation; apparent rates, estimated KD; settings: both partners purified
T3 construct: C-terminus of MEK2; also called MEK2 C-tail; TRTAV-COOH of MEK2; source: synthetic peptide (GenScript)
T3 peptide: {Biotin-Ahx}-RTLRLKQPSTPTRTAV-OH

[5] = molecular target: T4, SAPAP3 C-terminal peptide, biotin-Ahx-IYIPEAQTRL-carboxylic acid (human, SMILES …); assay: as above; settings: both partners purified
T4 construct: C-terminus of SAPAP3; the last ten residues of the human 20-mer aa 960-979; also called SAPAP3 C-tail peptide AQTRL-COOH; source: synthetic peptide (GenScript)
T4 peptide: {Biotin-Ahx}-IYIPEAQTRL-OH

[6] = molecular target: T5, CXCR2 C-terminal peptide, biotin-Ahx-VGSSSGHTSTTL-carboxylic acid (SMILES …); assay: as above; settings: both partners purified
T5 construct: C-terminus of CXCR2; also called CXCR2 C-tail peptide TSTTL-COOH; CXCR2 TSTTL-COOH biosensor; source: synthetic peptide (GenScript)
T5 peptide: {Biotin-Ahx}-VGSSSGHTSTTL-OH

Molecule: TSTTL-COOH [CXCR2 C-tail pentamer used in docking and MD]
binding to RGS12 PDZ domain fusions (in words) [1]: specific binding was observed

Molecule: CC(C)C[C@H](NC(=O)[C@@H](NC(=O)[C@@H](NC(=O)[C@H](CO)NC(=O)[C@@H](NC(=O)[C@H](Cc1c[nH]cn1)NC(=O)CNC(=O)[C@H](CO)NC(=O)[C@H](CO)NC(=O)[C@H](CO)NC(=O)CNC(=O)[C@@H](NC(=O)CCCCCNC(=O)CCCC[C@@H]1SC[C@@H]2NC(=O)N[C@@H]21)C(C)C)[C@@H](C)O)[C@@H](C)O)[C@@H](C)O)C(=O)O ({Biotin-Ahx}-VGSSSGHTSTTL-OH)
KD of R59Q variant relative to wildtype (fold less than the wildtype) [2]: at least 2 fold | maximal binding signal (Rmax), R59Q in comparison to wildtype [2]: less maximal binding signal (Rmax) | kon [2]: 1500 M⁻¹ s⁻¹ | kon [3]: 1210 M⁻¹ s⁻¹

Now from value to molecule:

KD of R59Q variant relative to wildtype (fold less than the wildtype) [2]: at least 2 fold | maximal binding signal (Rmax), R59Q in comparison to wildtype [2]: less maximal binding signal (Rmax) | kon [2]: 15400 M⁻¹ s⁻¹ | kon [3]: 1490 M⁻¹ s⁻¹
Molecule: CC[C@H](C)[C@H](NC(=O)CCCCCNC(=O)CCCC[C@@H]1SC[C@@H]2NC(=O)N[C@@H]21)C(=O)N[C@@H](Cc1ccc(O)cc1)C(=O)N[C@H](C(=O)N1CCC[C@H]1C(=O)N[C@@H](CCC(=O)O)C(=O)N[C@@H](C)C(=O)N[C@@H](CCC(N)=O)C(=O)N[C@H](C(=O)N[C@@H](CCCNC(=N)N)C(=O)N[C@@H](CC(C)C)C(=O)O)[C@@H](C)O)[C@@H](C)CC ({Biotin-Ahx}-IYIPEAQTRL-OH)

fold change of KD against the wild type [4]: ≥ 2 fold | fold change of KD against the wild type [5]: ≥ 2 fold | fold change of KD against the wild type [6]: ≥ 2 fold
B1: R59Q-variant human RGS12 PDZ domain GST-fusion protein (domain or fragment, UniProt O14924 18-101, looked up)
chain: T1 sequence (O14924 18-101 R59Q)
notes: human RGS12 PDZ domain, aa 18-101 of UniProt O14924, with the bipolar disorder-associated missense variation R59Q; R59Q is a variant found in families with bipolar disorder (Forstner et al.); also called R59Q-variant PDZ domain fusion protein; not shown: GST, N-terminal, kept
